Target: T1, GR (Homo sapiens, UniProt P04150)
T1 construct: expressed in transfected cells; host or cells: CHO-K1
T1 sequence (P04150 1-777): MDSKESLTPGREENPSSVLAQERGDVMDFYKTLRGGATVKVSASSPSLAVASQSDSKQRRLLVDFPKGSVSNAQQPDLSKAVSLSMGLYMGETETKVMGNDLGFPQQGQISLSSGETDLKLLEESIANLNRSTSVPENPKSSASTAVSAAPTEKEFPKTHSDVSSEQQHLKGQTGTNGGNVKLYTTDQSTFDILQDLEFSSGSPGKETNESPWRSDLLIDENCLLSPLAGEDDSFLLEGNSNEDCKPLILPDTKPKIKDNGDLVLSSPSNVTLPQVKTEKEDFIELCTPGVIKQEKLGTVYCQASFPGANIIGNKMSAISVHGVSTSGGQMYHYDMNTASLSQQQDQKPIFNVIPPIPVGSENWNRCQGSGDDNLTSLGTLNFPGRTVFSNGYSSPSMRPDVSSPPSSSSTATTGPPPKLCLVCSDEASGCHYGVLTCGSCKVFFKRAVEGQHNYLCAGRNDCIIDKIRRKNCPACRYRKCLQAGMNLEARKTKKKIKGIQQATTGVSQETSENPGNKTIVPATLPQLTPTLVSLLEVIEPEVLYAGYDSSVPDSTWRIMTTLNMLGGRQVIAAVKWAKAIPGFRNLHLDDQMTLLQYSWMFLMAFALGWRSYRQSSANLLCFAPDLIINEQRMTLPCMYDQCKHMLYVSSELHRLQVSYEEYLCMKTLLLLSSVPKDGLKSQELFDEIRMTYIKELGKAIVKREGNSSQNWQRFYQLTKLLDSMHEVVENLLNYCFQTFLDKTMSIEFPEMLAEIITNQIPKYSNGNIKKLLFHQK
Test: In Vitro GR Luciferase Reporter Assay (antagonist mode, CHO-K1-GR-MMTV-Luc reporter cells)
Format: cell-based
Conditions: antagonist mode, 10 nM Dexamethasone
In short: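 CHO-K1-GR-MMTV-Luc cells in phenol red-free DMEM with 10% CSS, stimulated with 10 nM dexamethasone (final) and treated with 8-point 1:5 compound dilutions for about 18-24 h at 37° C. Luciferase measured by OneGlo luminescence; IC50 derived for inhibition of GR activity.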

| Compound | IC50 [nM] |
| --- | --- |
| CCn1ncc(S(=O)(=O)N(C)[C@H]2CCC3=Cc4c(cnn4-c4ccc(F)cc4)C[C@]3(C(=O)c3ccc(C(F)(F)F)cn3)C2)n1 [Example 129, 2-ethyl-N-((4aS,6S)-1-(4-fluorophenyl)-4a-(5-(trifluoromethyl)picolinoyl)-4,4a,5,6,7,8-hexahydro-1H-benzo[f]indazol-6-yl)-N-methyl-2H-1,2,3-triazole-4-sulfonamide] | ≤ 100 |
| CCn1ncc(S(=O)(=O)N(C)[C@H]2CCC3=Cc4c(cnn4-c4ccc(F)cc4)C[C@]3(C(=O)c3ccc(C4CC4)cn3)C2)n1 [Example 130, N-((4aS,6S)-4a-(5-cyclopropylpicolinoyl)-1-(4-fluorophenyl)-4,4a,5,6,7,8-hexahydro-1H-benzo[f]indazol-6-yl)-2-ethyl-N-methyl-2H-1,2,3-triazole-4-sulfonamide] | ≤ 100 |
| CCN([C@H]1CCC2=Cc3c(cnn3-c3ccc(F)cc3)C[C@]2(C(=O)c2cc(C(F)(F)F)ccn2)C1)S(=O)(=O)c1cnn(CC)c1 [Example 132, N,1-diethyl-N-((4aS,6S)-1-(4-fluorophenyl)-4a-(4-(trifluoromethyl)picolinoyl)-4,4a,5,6,7,8-hexahydro-1H-benzo[f]indazol-6-yl)-1H-pyrazole-4-sulfonamide] | ≤ 100 |
| CN([C@H]1CCC2=Cc3c(cnn3-c3ccc(F)cc3)C[C@]2(C(=O)c2nccs2)C1)S(=O)(=O)c1cnn(C)c1 [Example 133, N-((4aS,6S)-1-(4-fluorophenyl)-4a-(thiazole-2-carbonyl)-4,4a,5,6,7,8-hexahydro-1H-benzo[f]indazol-6-yl)-N,1-dimethyl-1H-pyrazole-4-sulfonamide] | ≤ 100 |
| CN([C@H]1CCC2=Cc3c(cnn3-c3ccc(F)cc3)C[C@]2(C(=O)c2ccc(C3CC3)cn2)C1)S(=O)(=O)c1ccn(C)n1 [Example 135, N-((4aS,6S)-4a-(5-cyclopropylpicolinoyl)-1-(4-fluorophenyl)-4,4a,5,6,7,8-hexahydro-1H-benzo[f]indazol-6-yl)-N,1-dimethyl-1H-pyrazole-3-sulfonamide] | ≤ 100 |
| CCN([C@H]1CCC2=Cc3c(cnn3-c3ccc(F)cc3)C[C@]2(C(=O)c2ccc(C3CC3)cn2)C1)S(=O)(=O)c1cnn(C)c1 [Example 136, N-((4aS,6S)-4a-(5-cyclopropylpicolinoyl)-1-(4-fluorophenyl)-4,4a,5,6,7,8-hexahydro-1H-benzo[f]indazol-6-yl)-N-ethyl-1-methyl-1H-pyrazole-4-sulfonamide] | ≤ 100 |
| CN(c1ccc(F)cc1)S(=O)(=O)[C@H]1CCC2=Cc3c(cnn3-c3ccc(F)cc3)C[C@]2(C(=O)c2ccccn2)C1 [Example 137, (4aS,6S)-N,1-bis(4-fluorophenyl)-N-methyl-4a-picolinoyl-4,4a,5,6,7,8-hexahydro-1H-benzo[f]indazole-6-sulfonamide] | ≤ 100 |
| CN([C@H]1CCC2=Cc3c(cnn3-c3ccc(F)cc3)C[C@]2(C(=O)c2nccs2)C1)S(=O)(=O)c1ccn(C)n1 [Example 139, N-((4aS,6S)-1-(4-fluorophenyl)-4a-(thiazole-2-carbonyl)-4,4a,5,6,7,8-hexahydro-1H-benzo[f]indazol-6-yl)-N,1-dimethyl-1H-pyrazole-3-sulfonamide] | ≤ 100 |
| Cn1cc(S(=O)(=O)N(C2CC2)[C@H]2CCC3=Cc4c(cnn4-c4ccc(F)cc4)C[C@]3(C(=O)c3ccc(C4CC4)cn3)C2)cn1 [Example 141, N-cyclopropyl-N-((4aS,6S)-4a-(5-cyclopropylpicolinoyl)-1-(4-fluorophenyl)-4,4a,5,6,7,8-hexahydro-1H-benzo[f]indazol-6-yl)-1-methyl-1H-pyrazole-4-sulfonamide] | ≤ 100 |
| CN([C@H]1CCC2=Cc3c(cnn3-c3ccc(F)cc3)C[C@]2(C(=O)c2nccs2)C1)S(=O)(=O)c1ccc(Cl)cc1 [Example 143, 4-chloro-N-((4aS,6S)-1-(4-fluorophenyl)-4a-(thiazole-2-carbonyl)-4,4a,5,6,7,8-hexahydro-1H-benzo[f]indazol-6-yl)-N-methylbenzenesulfonamide] | ≤ 100 |
| CCN([C@H]1CCC2=Cc3c(cnn3-c3ccc(F)cc3)C[C@]2(C(=O)c2cc(C(F)(F)F)ccn2)C1)S(=O)(=O)c1cnn(C)n1 [Example 145, N-ethyl-N-((4aS,6S)-1-(4-fluorophenyl)-4a-(4-(trifluoromethyl)picolinoyl)-4,4a,5,6,7,8-hexahydro-1H-benzo[f]indazol-6-yl)-2-methyl-2H-1,2,3-triazole-4-sulfonamide] | ≤ 100 |
| CN([C@H]1CCC2=Cc3c(cnn3-c3ccc(F)cc3)C[C@]2(C(=O)c2ccc(C3CC3)cn2)C1)S(=O)(=O)c1ccc(Cl)cc1 [Example 146, 4-chloro-N-((4aS,6S)-4a-(5-cyclopropylpicolinoyl)-1-(4-fluorophenyl)-4,4a,5,6,7,8-hexahydro-1H-benzo[f]indazol-6-yl)-N-methylbenzenesulfonamide] | ≤ 100 |
| Cn1ccc(S(=O)(=O)N(C2CC2)[C@H]2CCC3=Cc4c(cnn4-c4ccc(F)cc4)C[C@]3(C(=O)c3nccs3)C2)n1 [Example 147, N-cyclopropyl-N-((4aS,6S)-1-(4-fluorophenyl)-4a-(thiazole-2-carbonyl)-4,4a,5,6,7,8-hexahydro-1H-benzo[f]indazol-6-yl)-1-methyl-1H-pyrazole-3-sulfonamide] | ≤ 100 |
| CN([C@H]1CCC2=Cc3c(cnn3-c3ccc(F)cc3)C[C@]2(C(=O)c2ncc(C3CC3)s2)C1)S(=O)(=O)c1cnn(C)n1 [Example 148, N-((4aS,6S)-4a-(5-cyclopropylthiazole-2-carbonyl)-1-(4-fluorophenyl)-4,4a,5,6,7,8-hexahydro-1H-benzo[f]indazol-6-yl)-N,2-dimethyl-2H-1,2,3-triazole-4-sulfonamide] | ≤ 100 |
| CN([C@H]1CCC2=Cc3c(cnn3-c3ccc(F)cc3)C[C@]2(C(=O)c2cc(C3CC3)ccn2)C1)S(=O)(=O)c1cnn(C)n1 [Example 149, N-((4aS,6S)-4a-(4-cyclopropylpicolinoyl)-1-(4-fluorophenyl)-4,4a,5,6,7,8-hexahydro-1H-benzo[f]indazol-6-yl)-N,2-dimethyl-2H-1,2,3-triazole-4-sulfonamide] | ≤ 100 |
| CN([C@H]1CCC2=Cc3c(cnn3-c3ccc(F)cc3)C[C@]2(C(=O)c2nc(C3CC3)cs2)C1)S(=O)(=O)c1cnn(C)n1 [Example 150, N-((4aS,6S)-4a-(4-cyclopropylthiazole-2-carbonyl)-1-(4-fluorophenyl)-4,4a,5,6,7,8-hexahydro-1H-benzo[f]indazol-6-yl)-N,2-dimethyl-2H-1,2,3-triazole-4-sulfonamide] | ≤ 100 |
| CN([C@H]1CCC2=Cc3c(cnn3-c3ccc(F)cc3)C[C@]2(C(=O)c2ncc(C(F)(F)F)s2)C1)S(=O)(=O)c1cnn(C)n1 [Example 151, N-((4aS,6S)-1-(4-fluorophenyl)-4a-(5-(trifluoromethyl)thiazole-2-carbonyl)-4,4a,5,6,7,8-hexahydro-1H-benzo[f]indazol-6-yl)-N,2-dimethyl-2H-1,2,3-triazole-4-sulfonamide] | ≤ 100 |
| Cn1ccc(S(=O)(=O)N(C2CC2)[C@H]2CCC3=Cc4c(cnn4-c4ccc(F)cc4)C[C@]3(C(=O)c3ccc(C4CC4)cn3)C2)n1 [Example 152, N-cyclopropyl-N-((4aS,6S)-4a-(5-cyclopropylpicolinoyl)-1-(4-fluorophenyl)-4,4a,5,6,7,8-hexahydro-1H-benzo[f]indazol-6-yl)-1-methyl-1H-pyrazole-3-sulfonamide] | ≤ 100 |
| CCN([C@H]1CCC2=Cc3c(cnn3-c3ccc(F)cc3)C[C@]2(C(=O)c2ncc(C3CC3)s2)C1)S(=O)(=O)c1cnn(C)c1 [Example 154, N-((4aS,6S)-4a-(5-cyclopropylthiazole-2-carbonyl)-1-(4-fluorophenyl)-4,4a,5,6,7,8-hexahydro-1H-benzo[f]indazol-6-yl)-N-ethyl-1-methyl-1H-pyrazole-4-sulfonamide] | ≤ 100 |
| CCn1ccc(S(=O)(=O)N(C)[C@H]2CCC3=Cc4c(cnn4-c4ccc(F)cc4)C[C@]3(C(=O)c3cc(C(F)(F)F)ccn3)C2)n1 [Example 157, 1-ethyl-N-((4aS,6S)-1-(4-fluorophenyl)-4a-(4-(trifluoromethyl)picolinoyl)-4,4a,5,6,7,8-hexahydro-1H-benzo[f]indazol-6-yl)-N-methyl-1H-pyrazole-3-sulfonamide] | ≤ 100 |
| CCn1cc(S(=O)(=O)N(C2CC2)[C@H]2CCC3=Cc4c(cnn4-c4ccc(F)cc4)C[C@]3(C(=O)c3cc(C(F)(F)F)ccn3)C2)cn1 [Example 158, N-cyclopropyl-1-ethyl-N-((4aS,6S)-1-(4-fluorophenyl)-4a-(4-(trifluoromethyl)picolinoyl)-4,4a,5,6,7,8-hexahydro-1H-benzo[f]indazol-6-yl)-1H-pyrazole-4-sulfonamide] | ≤ 100 |

From patent US20210122730A1, “GLUCOCORTICOID RECEPTOR MODULATORS” (ORIC Pharmaceuticals, Inc., priority 2017, published 2021)
